Test results taken from paper PMC8682738, “Constrained peptides mimic a viral suppressor of RNA silencing” (Nucleic Acids Research, 2021).
Positions of bridges follow the written chain, without caps; N, C: chain ends. Non-standard residues stand in square brackets, D forms with d. Residues, ends and D or L forms follow the SMILES beside them. *: point of attachment. FITC = O=C1OC2(c3ccc(O)cc3Oc3cc(O)ccc32)c2ccc(NC(=S)*)cc21; R8 = C=CCCCCCC[C@@](C)(N)C(=O)O; S5 = C=CCCC[C@](C)(N)C(=O)O; AEEA = NCCOCCOCC(=O)O

How the values were obtained:
ds miR-21 = experiment: ITC with ds miR-21; format: binding
Procedure: (§1) Isothermal titration calorimetry (ITC) was conducted using a MicroCal VP-ITC (Malvern Panalytical). Before measurement, oligonucleotide and peptide samples were dissolved in PBS and degassed using a ThermoVac (Malvern Panalytical) and heated to 30°C. N-terminally acetylated peptides (c = 3–12 μM) were then transferred into the sample cell and oligonucleotides (c = 12–72 μM) were transferred into the syringe. 35 Injections per measurement were performed at 30°C (8 μl injection volume, 2 s injection time, 180 s spacing, high feedback mode) with an initial delay of 60 s and a stirring speed of 307 rpm. Measurements were performed in triplicate. Using the MicroCal LLC ITC software (Origin; OriginLab Corporation), the heat associated with each injection was calculated by integrating the area under the curve in microcalories per second [μca/s] versus time [min] for each injection and then normalized to concentration. A ‘single set of identical binding sites’ model was used to fit the binding curves from which thermodynamic binding parameters (ΔG, ΔH, ΔS, N and Kd) were obtained.

pre-miR-21 = experiment: ITC with pre-miR-21; format: binding
Procedure: as §1

ds RNA hairpins HP 1–5 = experiment: EMSA with ds RNA hairpins HP 1-5; format: binding; conditions: fluorescein-labeled B3 2 μM, hairpin RNA 1 μM, TAE and 10% glycerol, RT 1 h
Procedure: Electrophoretic mobility shift assays (EMSAs) were performed using a Bio-Rad Mini-Protean gel system paired with a direct current (DC) power source (PowerPac™ HC, Bio-Rad). Typically, 6 μl solutions containing ds RNA (c = 3 μM) and fluorescein-labeled peptide (c = 6 μM) were incubated in binding buffer (10 mM Tris (pH 8.0), 0.5 mM EDTA, 12.5% glycerol and 150 mM KCl) at 4°C for 1 h. After incubation, bound RNA was resolved from peptide-free RNA using 10% non-denaturing polyacrylamide gels at 120 V in running buffer (25 mM Tris (pH 8.0), 200 mM glycine, 20 mM NaCl) at 4°C for 1 h. Visualization of fluorescent gel-bound species was conducted using a Typhoon Trio + fluorescence scanner (GE Healthcare Life Sciences). For nucleic acid visualization, gels were stained using 2 μl of SYBR™ gold nucleic acid gel dye (Molecular Probes) in 20 ml of TAE buffer (40 mM Tris, 1 mM EDTA, 20 mM acetic acid) for 45 min at RT before being visualized using a FluorChem™ gel documentation system (Alpha Innotech). To assess B3 binding to different ds RNA sequences (Supplementary Figure S20), 6 μl solutions containing hairpin RNA (c = 1 μM) and fluorescein-labeled B3 (c = 2 μM) were incubated in binding buffer (TAE and 10% glycerol) at RT for 1 h, and then resolved using 15% non-denaturing polyacrylamide gels (acrylamide/bis-acrylamide (19:1) in TAE) at 150 V in running buffer (TAE) at 4°C for 1.5 h. […]

[1] = tested on: Dicer processing of pre-miR-21; experiment: Dicer cleavage assay of pre-miR-21; format: biochemical; conditions: pre-miR-21 40 nM; for inhibition of pre-miR-21 maturation by Dicer (in words): Dicer 4 U·ml^−1, peptide 10–600 nM
Procedure: Next, RhDicer (0.5 U·μl^−1 solution; Genlantis) was diluted in buffer (20 mM Tris·HCl, pH 6.8, 100 mM NaCl, 1 mM MgCl2, 1 mM DTT, 5 mM β-mercaptoethanol, 10% glycerol, 0.1% Triton-X 100) to a concentration of 40 U·ml^−1 and then added to the peptide/RNA solutions (final RhDicer concentration: 4 U·ml^−1). The reaction solution was incubated for 150 min at 37°C, then denatured for 5 min at 70°C, and stored at 4°C. Subsequently, a 1:10 dilution in H2O of the reaction solution was performed and added to a Poly(A) Tailing and reverse transcription solution as previously reported ([62]). The samples were incubated at 42°C for 1 h before subsequent inactivation for 5 min at 95°C and cooling to 4°C. Next, qRT-PCR of each sample was performed using the primers miR21–5p–RV1 ([…]), miR21-5p-FW1 ([…]), and miRNA-RT1 ([…]) in a StepOnePlus™ real-time PCR system (Thermo Fisher Scientific). Briefly, 1 μl of template DNA solution was added to a solution of Luna® Universal Probe qPCR Master Mix (New England Biolabs) with a final primer concentration of 125 nM in 20 μl per sample. Samples were initially denatured for 5 min at 95°C followed by 45 temperature cycles of 15 s at 95°C and 30 s at 66°C. The quantification was done using miR-21-5p standard curves. To visualize the inhibitory potential of each peptide the normalized abundance of mature miR-21 (%) is plotted against the peptide concentration (nM).

Row | SMILES | Kd (ds miR-21) | Kd (pre-miR-21) | binding to ds RNA hairpins in EMSA (ds RNA hairpins HP 1–5) | inhibition of pre-miR-21 maturation by Dicer (in words) [1] | IC50 ([1]; recombinant Dicer 4 U·ml^−1, 150 min, 37°C, N-terminally acetylated peptide, qRT-PCR of miR-21, triplicate, read-out: Half-maximal Dicer inhibition)
1 | CC(C)C[C@H](NC(=O)[C@]1(C)CCCC=CCCC[C@](C)(NC(=O)[C@H](CCC(=O)O)NC(=O)[C@H](CO)NC(=O)[C@@H]2CCCN2C(=O)[C@H](CO)NC(=O)[C@H](CCCCN)NC(=O)[C@H](Cc2c[nH]cn2)NC(=O)CNC(=O)[C@H](CCCNC(=N)N)NC(=O)[C@]2(C)CCCC=CCCC[C@](C)(NC(=O)[C@H](CCCCN)NC(=O)[C@H](Cc3c[nH]cn3)NC(=O)[C@H](CCCNC(=N)N)NC(=O)[C@H](CCCCN)NC(=O)[C@H](CCCNC(=N)N)NC(=O)[C@H](CCC(N)=O)NC(=O)[C@H](C)NC(=O)[C@H](CCC(N)=O)NC(=O)[C@H](CCCCN)NC(=O)[C@H](CCCCN)NC(=O)COCCOCCNC(=S)Nc3ccc4c(c3)C(=O)OC43c4ccc(O)cc4Oc4cc(O)ccc43)C(=O)N[C@@H](CC(N)=O)C(=O)N[C@@H](CCCNC(=N)N)C(=O)N[C@@H](CCCCN)C(=O)N2)C(=O)N[C@@H](CCCNC(=N)N)C(=O)N[C@@H](CCCNC(=N)N)C(=O)N[C@@H](CO)C(=O)N1)C(=O)N[C@@H](Cc1c[nH]c2ccccc12)C(=O)N[C@@H](Cc1c[nH]cn1)C(=O)N[C@@H](C)C(=O)N[C@@H](CCCNC(=N)N)C(N)=O [B3] ({FITC-AEEA}-KKQAQRKRHK[S5]NRK[S5]RGHKSPSE[S5]RRS[S5]LWHAR-NH2; staple 11-15, 24-28) | 18 ± 2 nM | 75 ± 8 nM | showed binding to each hairpin | inhibited in a concentration-dependent manner | ~50 nM
2 | CC(C)C[C@@H]1NC(=O)[C@H](CCC(=O)O)NC(=O)[C@H](CO)NC(=O)[C@@](C)(NC(=O)[C@H](CCCNC(=N)N)NC(=O)[C@H](CCC(N)=O)NC(=O)[C@H](CCC(=O)O)NC(=O)[C@H](CO)NC(=O)[C@@H]2CCCN2C(=O)[C@H](CO)NC(=O)[C@H](CCCCN)NC(=O)[C@H](Cc2c[nH]cn2)NC(=O)[C@]2(C)CCCC=CCCCCCC[C@@](C)(NC(=O)[C@H](Cc3c[nH]cn3)NC(=O)[C@H](CCCNC(=N)N)NC(=O)[C@H](CCCCN)NC(=O)[C@H](CCCNC(=N)N)NC(=O)[C@H](CCC(N)=O)NC(=O)[C@H](C)NC(=O)[C@H](CCC(N)=O)NC(=O)[C@H](CCCCN)NC(=O)[C@H](CCCCN)NC(=O)COCCOCCNC(=S)Nc3ccc4c(c3)C(=O)OC43c4ccc(O)cc4Oc4cc(O)ccc43)C(=O)N[C@@H](CC(C)C)C(=O)N[C@@H](CC(N)=O)C(=O)N[C@@H](CCCNC(=N)N)C(=O)N[C@@H](CCCCN)C(=O)N[C@@H](CCC(=O)O)C(=O)N[C@@H](CCCNC(=N)N)C(=O)N2)CCCC=CCCC[C@@](C)(C(=O)N[C@@H](Cc2c[nH]cn2)C(=O)N[C@@H](C)C(=O)N[C@@H](CCCNC(=N)N)C(N)=O)NC1=O [D1] ({FITC-AEEA}-KKQAQRKRH[R8]LNRKER[S5]HKSPSEQR[S5]SEL[S5]HAR-NH2; staple 10-17, 26-30) | – | – | – | showed only small effects | –
